Test results as given in patent US8057829B2, “Methods for repelling insects using sesquiterpene hydrocarbons and their derivatives” (Sterling International Inc., priority 2008, dated 2011).

Experiments:
[1] = tested on: male false stable fly Muscina stabulans antenna and female mosquito Aedes (Ochlerotatus) increpitus Dyar antenna; assay: GC-EAD responses of false stable fly and Aedes increpitus to a synthetic mixture; settings: about 100 ng of each compound, FIG. 5
Procedure: The GC-EAD responses of the male false stable fly Muscina stabulans antenna and the female mosquito Aedes (Ochlerotatus) increpitus Dyar antenna were tested on a synthetic mixture of linalool and two representative sesquiterpene hydrocarbons, β-caryophyllene and α-humulene, and one sesquiterpene oxide, β-caryophyllene oxide, with about 100 ng of each compound in the mixture.
(§1) The following procedures were employed to test the EAD response of an insect antenna to a repellent compound. The GC-EAD technique provides an efficient tool for screening behaviorally active repellents. Several synthetic mixtures of potential insect repellent candidates, mostly sesquiterpene hydrocarbons and derivatives, were analyzed in splitless mode using a Varian CP-3800 GC equipped with a polar column (Innowax; 1.0 μm film thickness, 30 m×0.53 mm ID; J & W Scientific), and a 1:1 effluent splitter that allowed simultaneous flame ionization detection (FID) and EAD of the separated volatile compounds. Helium was used as the carrier gas, and the injector temperature was 220° C. The column temperature was 50° C. for 2 min, rising to 240° C. at 10° C./min, then held for 10 min. The outlet for the EAD was held in a humidified air stream flowing at 0.5 liter/min. over an antennal preparation. A glass capillary indifferent electrode filled with Beadle-Ephrussi Ringer, and grounded via a silver wire, was inserted into the severed insect's head with the antennae. A similar recording electrode connected to a high-impedance DC amplifier with automatic baseline drift compensation was placed in contact with the distal end of one antenna (Zhang et al., Chemoecology, 10:69-80 (2000)). The antennal signals were stored and analyzed on a PC equipped with a serial IDAC interface box and the program EAD ver. 2.5 (Syntech, Hilversum, The Netherlands). The compound 1-octen-3-ol (known attractant for many flies and mosquitoes) was included in most of the synthetic mixtures, as a positive control. The results of the experiments are shown in FIGS. 1-10 and described above.

[2] = tested on: antennae of Musca domestica, Lucillia sericata, Sarcophaga sp., Muscina stabulans, Culex pipiens, Aedes increpitus; assay: GC-EAD responses of several flies and two mosquitoes to a synthetic mixture; settings: about 100 ng of each compound, FIG. 6
Procedure: The GC-EAD responses of several species of flies and two species of mosquito antennae were tested on a synthetic mixture of 1-octen-3-ol, linalool, two representative sesquiterpene hydrocarbons, β-caryophyllene and α-humulene, ZE-nepetalactone, EZ-nepetalactone, and two known insect repellents, DEET, and SS220, with about 100 ng of each compound in the mixture. DEET and SS220 are used as positive controls in the experiment. The compound 1-octen-3-ol is a known attractant for the insects and is also used as a positive control. The insects tested are species of Musca domestica, Lucillia sericata, Sarcophaga sp., Muscina stabulans, Culex pipiens, and Aedes increpitus.
as §1, with “2.5 (Syntech, Hilversum, The Netherlands). The compound 1-octen-3-ol (known attractant for many flies and mosquitoes) was included in most of the synthetic mixtures, as a positive control. The results of the experiments are shown in FIGS. 1-10 and described above.” left out

[3] = tested on: female antennae of sand fly Phlebotomus papatasi and mosquitoes Aedes aegypti, Anopheles gambiae, Anopheles stephensi; assay: GC-EAD responses of sand fly and three mosquitoes to synthetic mixtures; settings: about 100 ng of each compound, on one or more of the sand fly or the mosquitoes, FIGS. 9 and 10
Procedure: The GC-EAD responses of female antennae of the sand fly, Phlebotomus papatasi, and three species of mosquitoes, Aedes aegypti, Anopheles gambiae, and anopheles stephensi were tested on a synthetic mixture of 1-octen-3-ol, six sesquiterpene hydrocarbons including (+)-longipinene, (−)-isolongifolene, (+)-longifolene, β-caryophyllene, isolongifolenone, and α-humulene, and several known insect repellents including ZE-nepetalactone, EZ-nepetalactone, with about 100 ng of each compound in the mixture.
The GC-EAD responses of female antennae of the sand fly, Phlebotomus papatasi, and three species mosquitoes, Aedes aegypti, Anopheles gambiae, and anopheles stephensi were tested on a synthetic mixture of 1-octen-3-ol, linalool, β-caryophyllene oxide, isocaryophyllene, β-caryophyllene, and α-humulene, and DEET, with about 100 ng of each compound in the mixture.
as §1

houseflies = assay: Laboratory sticky trap bioassay of spatial repellency with egg powder attractant; assay type: in vivo, housefly (Musca domestica)
Procedure: Laboratory bioassay tests were carried out to investigate the efficacy of some of the EAD-active compounds described above to act as spatial repellents against several insects. The procedure for the bioassay tests is described in Example 2 below. Briefly stated, the bioassay included using egg powder (EP) as an attractant for flies, while the compound whose insect repellency was being tested was placed in proximity to the egg powder. In FIGS. 11-13, the bioassay was carried out on houseflies using devices known by the designation Trécé Pherocon® VI sticky traps.
The following lab bioassay tests were employed to illustrate the efficacy of the compounds to effectively act as spatial repellents for flies. Three sets of tests were conducted in a fly testing room (23° C., 70% RH, and 12/12 (L/D) light regime illuminated by fluorescent lights). Two sets of tests were carried out using Trécé Pherocon® VI traps with sticky inserts, which were set up on poles evenly spaced on a rotating table. The traps were ca. 1 m above a table surface, and ca. 1 m apart from each other. Two grams of egg powder in a white cap (4 cm in diameter, 0.5 cm in height) used as an attractant was put on the center of the sticky insert in the sticky trap. The potential repellent candidate chemicals were loaded into polyethylene bags, and were hung under the inner roof of the traps, 1-1.5 cm above the egg powder attractant. A control had the empty white cap and blank polyethylene bag, while the positive control had only the egg powder and an empty polyethylene bag. The test table was rotated 1.5 r.p.h. […] About 200-300 houseflies (2-3 days old) were released into the testing room for each test. Tests were normally run from 8:00 am to 5:00 pm, and the numbers of houseflies caught in each trap were counted after each test. The results of these tests are shown in FIGS. 11-13 and described above.

[4] = tested on: housefly (Musca domestica) antenna; assay: GC-EAD antennal response, housefly; settings: female housefly antenna; synthetic mixture, about 100 ng of each compound; FIG. 3
Source text: The sesquiterpene hydrocarbons and their derivatives disclosed herein have been identified as suitable insect repellents by testing via a gas chromatographic-electroantennographic detection (GC-EAD) method as described in Example 1 below. This method can be used to efficiently screen for potentially behaviorally active compounds, including insect repellents, attractants, deterrents, or attraction-inhibitors from complex natural sources or synthetic mixtures.
The GC-EAD responses of the female housefly antenna were tested on a synthetic mixture of 1-octen-3-ol, a known attractant used as a positive control, and representative sesquiterpene hydrocarbons and derivatives, (+)-longipinene, (−)-isolongifolene, (+)-longifolene, β-caryophyllene, α-humulene, and isolongifolenone, with about 100 ng of each compound in the mixture.
The GC-EAD responses of the male housefly antenna were tested on a synthetic mixture of 1-octen-3-ol, and two representative sesquiterpenes, β-caryophyllene and isocaryophyllene, with about 100 ng of each compound in the mixture.
as §1

[5] = tested on: antennae of housefly, sand fly, and mosquitoes Aedes aegypti, Anopheles gambiae, Anopheles stephensi; assay: GC-EAD antennal responses to SPME samples of clove essential oil; settings: component of clove essential oil SPME sample; response by one or more of the insects; FIG. 1
Procedure: The GC-EAD antennal response of a female housefly (Musca domestica), sand fly (Phlebotomus papatasi), and mosquitoes including the species Aedes aegypti, Anopheles gambiae, and Anopheles stephensi were tested with clove essential oil. FIG. 1 is a simultaneous recording of GC flame ionization detection (FID) and electroantennographic detection (EAD) of the insect antennae to solid phase microextraction (SPME: CAR/PDMS) samples of clove essential oil in a 20 ml glass vial for 20 sec.
as §1, with “The results of the experiments are shown in FIGS. 1-10 and described above.” left out

Row | Compound | GC-EAD antennal activity [1] | GC-EAD antennal activity [2] | GC-EAD antennal activity [3] | number of house flies per trap (houseflies; egg powder attractant plus repellent, FIG. 11, egg powder alone 44) [house flies per trap] | repellency against houseflies, in words (houseflies; laboratory trap bioassay with egg powder attractant) | GC-EAD antennal activity [4] | GC-EAD antennal activity [5]
1 | C=CC(C)(O)CCC=C(C)C (stereo not shown) [linalool, 3,7-dimethyl-3-hydroxy-1,6-octadiene] | active on at least one of the insects tested | active on at least one of the insects tested | antennally active | 5.5 | effective housefly repellents |  | 
2 | C/C1=C\CC/C(C)=C/CC(C)(C)/C=C/C1 [α-humulene] | active on at least one of the insects tested | active on at least one of the insects tested | antennally active |  |  | active | EAD-active
